This is an account of results in US20180099931A1 (AbbVie S.à.r.l., priority 2016, published 2018).

Read-outs that look alike come from different tables or passages of the source. Where only a bound is given, the exact number is not on record here.

In this assay the target is T1, F508delCFTR (Homo sapiens, UniProt P13569, DEL508-508).
T1 construct: expressed in transfected cells; host or cells: CFBE41o- human lung-derived epithelial cells (CFBE4lo-F508delCFTR-HRP), doxycycline-inducible
Nature of the assay: Cell Surface Expression-Horse Radish Peroxidase (CSE-HRP) Assay.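 For Maximum % activity (with co-corrector): co-corrector and positive control are both the same reference corrector at 2 µM.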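 For Maximum % activity (without co-corrector): percent of the 2 µM on-plate positive control corrector response above DMSO.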 It is filed as cell-based. Conditions: for Maximum % activity (with co-corrector) / Emax: maximum at any tested concentration, normalized to on-plate positive control; for Emax: read-out: Maximum % activity (without co-corrector).

The mark [1] stands for this setting: test compound without co-corrector, read-out: EC50 (without co-corrector).
The mark [2] stands for this setting: with co-corrector (2 μM of 3-[(2R,4R)-4-({[1-(2,2-difluoro-1,3-benzodioxol-5-yl)cyclopropyl]carbonyl}amino)-7-methoxy-3,4-dihydro-2H-chromen-2-yl]benzoic acid), read-out: EC50 (with co-corrector).
[3] abbreviates: test compound without co-corrector.
Setting [4] is: with co-corrector (2 μM of 3-[(2R,4R)-4-({[1-(2,2-difluoro-1,3-benzodioxol-5-yl)cyclopropyl]carbonyl}amino)-7-methoxy-3,4-dihydro-2H-chromen-2-yl]benzoic acid).
The mark [5] stands for this setting: CSE-HRP, test compound without co-corrector, read-out: EC50 (without co-corrector).
Setting [6] is: CSE-HRP, with co-corrector (2 μM of 3-[(2R,4R)-4-({[1-(2,2-difluoro-1,3-benzodioxol-5-yl)cyclopropyl]carbonyl}amino)-7-methoxy-3,4-dihydro-2H-chromen-2-yl]benzoic acid), read-out: EC50 (with co-corrector).
Where [7] appears, read: CSE-HRP, with co-corrector (2 μM).

T1 sequence (P13569 with tags, fused parts or gaps DEL508-508): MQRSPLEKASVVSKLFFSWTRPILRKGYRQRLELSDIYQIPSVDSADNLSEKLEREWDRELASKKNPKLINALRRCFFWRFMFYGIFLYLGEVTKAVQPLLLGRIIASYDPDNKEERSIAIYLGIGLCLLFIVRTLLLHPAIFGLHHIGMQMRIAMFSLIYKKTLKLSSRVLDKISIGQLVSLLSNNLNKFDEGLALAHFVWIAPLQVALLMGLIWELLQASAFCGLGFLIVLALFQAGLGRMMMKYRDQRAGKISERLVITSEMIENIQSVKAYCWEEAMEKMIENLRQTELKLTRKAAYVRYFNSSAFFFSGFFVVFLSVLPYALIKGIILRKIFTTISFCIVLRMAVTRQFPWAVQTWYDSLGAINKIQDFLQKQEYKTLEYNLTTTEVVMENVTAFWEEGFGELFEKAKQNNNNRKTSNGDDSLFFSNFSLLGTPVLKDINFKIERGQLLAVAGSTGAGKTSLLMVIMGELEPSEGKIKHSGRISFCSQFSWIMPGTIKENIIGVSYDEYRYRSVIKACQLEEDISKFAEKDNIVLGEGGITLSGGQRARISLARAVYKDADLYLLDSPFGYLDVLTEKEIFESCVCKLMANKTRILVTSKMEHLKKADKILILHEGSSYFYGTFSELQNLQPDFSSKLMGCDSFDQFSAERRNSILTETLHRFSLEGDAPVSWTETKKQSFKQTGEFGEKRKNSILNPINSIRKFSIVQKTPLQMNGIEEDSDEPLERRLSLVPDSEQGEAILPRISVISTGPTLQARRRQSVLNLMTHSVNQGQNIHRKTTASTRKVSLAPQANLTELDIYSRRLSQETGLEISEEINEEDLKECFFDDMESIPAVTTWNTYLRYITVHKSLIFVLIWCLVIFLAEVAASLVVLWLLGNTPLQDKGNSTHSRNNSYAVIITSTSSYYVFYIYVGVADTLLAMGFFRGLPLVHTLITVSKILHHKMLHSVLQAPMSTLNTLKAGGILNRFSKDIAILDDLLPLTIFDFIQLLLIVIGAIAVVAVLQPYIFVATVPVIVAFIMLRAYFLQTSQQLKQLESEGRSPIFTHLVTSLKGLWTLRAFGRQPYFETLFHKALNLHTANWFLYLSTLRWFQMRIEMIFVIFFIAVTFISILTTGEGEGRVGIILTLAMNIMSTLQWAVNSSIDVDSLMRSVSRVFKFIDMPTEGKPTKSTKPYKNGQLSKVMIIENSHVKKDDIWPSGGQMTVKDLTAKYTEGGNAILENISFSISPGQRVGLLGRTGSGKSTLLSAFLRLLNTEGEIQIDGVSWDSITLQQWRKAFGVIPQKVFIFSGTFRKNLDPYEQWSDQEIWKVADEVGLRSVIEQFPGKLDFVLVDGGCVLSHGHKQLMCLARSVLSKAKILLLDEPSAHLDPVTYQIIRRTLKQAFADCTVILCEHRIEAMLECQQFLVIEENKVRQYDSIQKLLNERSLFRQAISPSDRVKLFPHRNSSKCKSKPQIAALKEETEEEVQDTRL

`COc1ncc(C2CCC2)cc1CN[C@H]1[C@H](C(C)(C)C)[C@@H](C(=O)O)N(C(=O)C2Cc3ccccc3CO2)[C@H]1c1ccccc1` (some centres unmarked) [Example I-206]: the EC50 under setting [1] fell in the range of 1 to 10 µM and the concentration for a half-maximal effect (EC50) under setting [2] is 1 to 10 µM. Moreover, the “Maximum % activity (with co-corrector)” value (with co-corrector (2 μM)) was “+++ (≥350)”. For the same compound, the Emax (without co-corrector) lay within 100 to 200%.
On to `COc1cccc(CN[C@@H]2[C@@H](C(C)(C)C)[C@H](C(=O)O)N(C(=O)C3CCCCC3)[C@@H]2c2ccccc2)n1` (racemic) [III-19], for which the Emax under setting [3] is less than 100%. For the same compound, the EC50 is, setting by setting: under setting [1], 1 to 10 µM; under setting [2], 1 to 10 µM. Further, the “Maximum % activity (with co-corrector)” value under setting [4] was “++ (≥150 and <350)”.
As to `Cc1cc(C(F)(F)F)nc(N[C@@H]2[C@@H](C(C)(C)C)[C@H](C(=O)O)N(C(=O)OC(C)C)[C@@H]2c2ccccc2)n1` (racemic) [Example I-13], the EC50 runs as follows: under setting [1], 1 to 10 µM; under setting [2], 1 to 10 µM. The “Maximum % activity (with co-corrector)” value (with co-corrector (2 μM)) is “++ (≥150 and <350)”. For the setting “without co-corrector”, the Emax was less than 100%.
With `COc1cc(C(F)(F)F)ccc1CN[C@H]1[C@H](C(C)(C)C)[C@@H](C(=O)O)N(C(=O)[C@@H]2CCCC(F)(F)C2)[C@H]1c1ccccc1` [Example 75, (2S,3S,4S,5S)-3-tert-butyl-1-[(1R)-3,3-difluorocyclohexane-1-carbonyl]-4-({[2-methoxy-4-(trifluoromethyl)phenyl]methyl}amino)-5-phenylpyrrolidine-2-carboxylic acid], the EC50 by setting is: under setting [1], 1 to 10 µM; under setting [2], less than 1 µM. Where the note is “with co-corrector (2 μM)”, the “Maximum % activity (with co-corrector)” value is recorded as “+++ (≥350)”. The Emax (without co-corrector) is more than 200%.
Turning to `COc1ccc(C(C)(C)C)cc1CN[C@H]1[C@H](C(C)(C)C)[C@@H](C(=O)O)N(C(=O)[C@@H]2CCC[C@@H](OC(F)(F)F)C2)[C@H]1c1cccnc1OC` [II-540], the Emax under setting [3] was more than 200%. Besides, the EC50 is 1 to 10 µM under setting [1] and less than 1 µM under setting [2]. Moreover, under setting [4], the “Maximum % activity (with co-corrector)” value is “+++ (≥350)”.
As to `Cc1cc(C(F)(F)F)cc(N[C@@H]2[C@@H](C(C)(C)C)[C@H](C(=O)O)N(C(=O)C3CCCCC3)[C@@H]2c2cccnc2N(C)C)n1` (racemic) [III-46], under setting [3], the Emax is less than 100%. The EC50 runs as follows: under setting [1], 1 to 10 µM; under setting [2], 1 to 10 µM. For the same compound, under setting [4], the “Maximum % activity (with co-corrector)” value was “++ (≥150 and <350)”.
As for `COc1nc2ccccc2cc1CN[C@H]1[C@H](C(C)(C)C)[C@@H](C(=O)O)N(C(=O)C2CCCCC2)[C@H]1c1ccccc1` [II-244], the EC50 is 1 to 10 µM under setting [5] and less than 1 µM under setting [6]. For the same compound, under setting [7], the “Maximum % activity (with co-corrector)” value was “+++ (≥350)”. Moreover, the Emax (CSE-HRP, without co-corrector) is more than 200%.
`COc1ccc(C23CC(C2)C3)cc1CN[C@H]1[C@H](C(C)(C)OC)[C@@H](C(=O)O)N(C(=O)OC(C)C)[C@H]1c1cccnc1N(C)C` [II-501]: under setting [3], the Emax is more than 200%. Also, the EC50 is 1 to 10 µM under setting [1] and 1 to 10 µM under setting [2]. Besides, the “Maximum % activity (with co-corrector)” value under setting [4] is “+++ (≥350)”.
For the compound `COc1ccc(C(C)(C)C)cc1CN[C@H]1[C@H](C(C)(C)C)[C@@H](C(=O)O)N(C(=O)C2CCC2)[C@H]1c1ccccc1C(F)(F)F` [Example I-277], the EC50 under setting [5] was 1 to 10 µM and the EC50 under setting [6] is 1 to 10 µM. Further, the “Maximum % activity (with co-corrector)” value under setting [7] is reported as “+++ (≥350)”. Moreover, the Emax (CSE-HRP, without co-corrector) was 100 to 200%.
As for `COc1ncc(C2CCC2)cc1CN[C@H]1[C@H](C(C)(C)C)[C@@H](C(=O)O)N(C(=O)[C@@H]2CCCO2)[C@H]1c1ccccc1Br` [Example 106, (2S,3S,4S,5S)-5-(2-bromophenyl)-3-tert-butyl-4-{[(5-cyclobutyl-2-methoxypyridin-3-yl)methyl]amino}-1-[(2S)-oxolane-2-carbonyl]pyrrolidine-2-carboxylic acid], the concentration for a half-maximal effect (EC50) runs as follows: under setting [1], 1 to 10 µM; under setting [2], 1 to 10 µM. The “Maximum % activity (with co-corrector)” value (with co-corrector (2 μM)) is on record as “+++ (≥350)”. In addition, the Emax (without co-corrector) lay within 100 to 200%.
Turning to `COc1cc2c(cc1CN[C@H]1[C@H](C(C)(C)C)[C@@H](C(=O)O)N(C(=O)C3CCCCC3)[C@H]1c1ccccc1)C(C)(C)CCC2(C)C` [III-119], under setting [3], the Emax was 100 to 200%. Besides, the EC50 runs as follows: under setting [1], less than 1 µM; under setting [2], less than 1 µM. Further, where the note is “with co-corrector (2 μM)”, the “Maximum % activity (with co-corrector)” value was “+++ (≥350)”.
Take `COc1ccc(C(C)(C)C)cc1CN[C@H]1[C@H](C(C)(C)C)[C@@H](C(=O)O)N(C(=O)C(OC)c2cccc(Cl)c2)[C@H]1c1ccccc1` (single isomer, unassigned) [II-270]: the EC50 was less than 1 µM under setting [5] and less than 1 µM under setting [6]. Also, the “Maximum % activity (with co-corrector)” value under setting [7] was “+++ (≥350)”. Further, the Emax (CSE-HRP, without co-corrector) is more than 200%.
Turning to `COc1ccc(C(C)(C)C)cc1CN[C@H]1[C@H](C(C)(C)C)[C@@H](C(=O)O)N(C(=O)OC(C)C)[C@H]1c1ccccc1C(C)C` [Example 61, (2S,3S,4S,5S)-3-tert-butyl-4-{[(5-tert-butyl-2-methoxyphenyl)methyl]amino}-1-{[(propan-2-yl)oxy]carbonyl}-5-[2-(propan-2-yl)phenyl]pyrrolidine-2-carboxylic acid], the EC50 runs as follows: under setting [1], less than 1 µM; under setting [2], less than 1 µM. Besides, under “with co-corrector (2 μM)”, the “Maximum % activity (with co-corrector)” value is reported as “+++ (≥350)”. Besides, for the setting “without co-corrector”, the Emax was more than 200%.
`COc1cc(C(F)(F)F)ccc1CN[C@H]1[C@H](C(C)(C)C)[C@@H](C(=O)O)N(C(=O)OC(C)C)[C@H]1c1cccnc1OC(C)C` [Example 81, (2S,3S,4S,5S)-3-tert-butyl-4-({[2-methoxy-4-(trifluoromethyl)phenyl]methyl}amino)-1-{[(propan-2-yl)oxy]carbonyl}-5-{2-[(propan-2-yl)oxy]pyridin-3-yl}pyrrolidine-2-carboxylic acid]: the EC50 is, setting by setting: under setting [1], 1 to 10 µM; under setting [2], 1 to 10 µM. Besides, the “Maximum % activity (with co-corrector)” value (with co-corrector (2 μM)) is reported as “+++ (≥350)”. Also, the Emax (without co-corrector) is 100 to 200%.
As for `COc1cc2c(cc1CN[C@@H]1[C@H](C(C)(C)C)[C@@H](C(=O)O)N(C(=O)OC(C)C)[C@H]1c1ccccc1)CCC2` [II-555], under setting [3], the Emax was less than 100%. Besides, the EC50 is, setting by setting: under setting [1], 1 to 10 µM; under setting [2], 1 to 10 µM. Further, under setting [4], the “Maximum % activity (with co-corrector)” value was “++ (≥150 and <350)”.
For `COc1nc(C(C)(C)C)ccc1CN[C@H]1[C@H](C(C)(C)C)[C@@H](C(=O)O)N(C(=O)[C@H]2CCCCO2)[C@H]1c1ccccc1` [Example 39, (2S,3S,4S,5S)-3-tert-butyl-4-{[(6-tert-butyl-2-methoxypyridin-3-yl)methyl]amino}-1-[(2R)-oxane-2-carbonyl]-5-phenylpyrrolidine-2-carboxylic acid], the EC50 under setting [1] was in the range of 1 to 10 µM and the EC50 under setting [2] was 1 to 10 µM. In addition, under “with co-corrector (2 μM)”, the “Maximum % activity (with co-corrector)” value is “+++ (≥350)”. Moreover, the Emax (without co-corrector) lay within 100 to 200%.
As for `COc1ccc(-c2cnn(C3CCC3)c2)cc1CN[C@H]1[C@H](C(C)(C)C)[C@@H](C(=O)O)N(C(=O)C2CCCCC2)[C@H]1c1ccccc1` [II-290], the EC50 under setting [5] is 1 to 10 µM and the EC50 under setting [6] lay in the range of 1 to 10 µM. Moreover, under setting [7], the “Maximum % activity (with co-corrector)” value was “++ (≥150 and <350)”. Also, for the setting “CSE-HRP, without co-corrector”, the Emax is less than 100%.
Take `COc1ncc(C(F)(F)F)cc1CN[C@H]1[C@H](C(C)(C)C)[C@@H](C(=O)O)N(C(=O)[C@@H]2CCCCO2)[C@H]1c1cccc2c1OCC2` [Example I-298]: the EC50 under setting [5] was 1 to 10 µM and the EC50 under setting [6] was in the range of 1 to 10 µM. For the same compound, the “Maximum % activity (with co-corrector)” value under setting [7] is recorded as “+++ (≥350)”. Besides, the Emax (CSE-HRP, without co-corrector) is 100 to 200%.
In the case of `COc1ccc(C(C)(C)C)cc1CN[C@H]1[C@H](C(C)(C)C)[C@@H](C(=O)O)N(C(=O)Cc2cc(C)sc2C)[C@H]1c1ccccc1` [II-208], the EC50 was 1 to 10 µM under setting [5] and less than 1 µM under setting [6]. In addition, the “Maximum % activity (with co-corrector)” value under setting [7] is “+++ (≥350)”. For the same compound, the Emax (CSE-HRP, without co-corrector) was more than 200%.
`COc1ncc(C2CCC2)cc1CN[C@H]1[C@H](C(C)(C)C)[C@@H](C(=O)O)N(C(=O)C2CCCCC2C(F)(F)F)[C@H]1c1ccccc1` (some centres unmarked) [III-214]: the Emax under setting [3] fell in the range of 100 to 200%. Besides, the EC50 is less than 1 µM under setting [1] and less than 1 µM under setting [2]. Further, the “Maximum % activity (with co-corrector)” value (with co-corrector (2 μM)) is “+++ (≥350)”.
On to `CC(C)(C)[C@@H]1[C@@H](NCc2ccccc2C(F)(F)F)[C@@H](c2ccccc2)N(C(=O)C2CCCCC2)[C@H]1C(=O)O` (racemic) [II-31], for which the EC50 under setting [5] fell in the range of 1 to 10 µM and the EC50 under setting [6] lay in the range of 1 to 10 µM. For the same compound, under setting [7], the “Maximum % activity (with co-corrector)” value is listed as “+++ (≥350)”. Where the note is “CSE-HRP, without co-corrector”, the Emax was less than 100%.
In the case of `COc1cc2c(cc1CN[C@H]1[C@H](C(C)(C)C)[C@@H](C(=O)O)N(C(=O)OC(C)C)[C@H]1c1cccnc1N(C)C)C(C)(C)CCC2(C)C` [Example I-251], the half-maximal effective concentration (EC50) under setting [5] was in the range of 1 to 10 µM and the EC50 under setting [6] is 1 to 10 µM. Besides, the “Maximum % activity (with co-corrector)” value under setting [7] is given as “+++ (≥350)”. The Emax (CSE-HRP, without co-corrector) lay within 100 to 200%.
For `COc1ccc(C(F)(F)F)cc1CN[C@H]1[C@H](C(C)(C)C)[C@@H](C(=O)O)N(S(=O)(=O)c2ccccc2)[C@H]1c1ccccc1` [II-155], the EC50 under setting [5] is 1 to 10 µM and the EC50 under setting [6] fell in the range of 1 to 10 µM. Further, the “Maximum % activity (with co-corrector)” value under setting [7] was “++ (≥150 and <350)”. For the setting “CSE-HRP, without co-corrector”, the Emax is less than 100%.
